Experimental findings from ChEMBL document CHEMBL1201862, “PubChem BioAssay data set” (2004) are described below.

Active and inactive are the calls of the source.

A word on the CC50: it is the concentration giving 50% cytotoxicity. By Ki is commonly meant a measure of affinity in units of concentration, obtained from inhibition or displacement. For orientation: AC50 means the concentration at which the activity in the assay is half-maximal.

The target of test [1] is DNA dC->dU-editing enzyme APOBEC-3A (Homo sapiens, UniProt P31941). Put plainly: SAR analysis of small molecule inhibitors of APOBEC3A DNA Deaminase via a fluorescence-based single-stranded DNA deaminase assay. It is filed as functional. As to conditions: read-out: IC50_Mean.
Test [2] addresses DNA dC->dU-editing enzyme APOBEC-3G (Homo sapiens, UniProt Q9HC16). Put plainly: APOBEC3G deaminase inhibitors, SAR follow-up, biochemical, fluorescence, single-stranded DNA substrate (AID 602136). The test is classed as functional. The following applies: read-out: IC50_Mean.
Test [3] is described as follows: THP-1 cell cytotoxicity, dose response, cytotoxicity control, set 3 (AID 504852). As to conditions: Mycobacterium tuberculosis. The test is classed as functional.
A short description of test [4]: Vero cell cytotoxicity, dose response, cytotoxicity control for M. tuberculosis growth inhibitor project, Vero cells, purified and synthesized compounds, set 4 (AID 504854). The test is classed as functional. As to conditions: Mycobacterium tuberculosis.
Test [5] can be described thus: nonselective inhibitors of cellular cAMP signaling, dose response, counter-screen for MC4R biased antagonist project, cell-based, TR-FRET cAMP detection (AID 602305).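 Note: U2OS cells stimulated with forskolin near its EC80 as the cAMP inducer; potency is for inhibition of forskolin-stimulated cAMP signaling.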 It is filed as functional.
A further test concerns H9c2. Briefly: cells. It is filed as functional, cell-based. The following applies: Rattus norvegicus, H9c2, Myocardium.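 Note: confirmatory concentration-response retest of ultra-high-throughput screening hits for modulation of myocardial damage; cell death induced by hydrogen peroxide oxidative stress; compound pretreatment for 60 min then peroxide exposure for 2 h; potency is for protecting the cells against peroxide damage rather than for killing them.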
A further test deals with Melanocortin receptor 4 (Homo sapiens, UniProt P32245). Put plainly: MC4R antagonist potency on cAMP, dose response, cell-based, TR-FRET, biased antagonists (AID 602298).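 Note: antagonist potency against agonist-stimulated cAMP production.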 It is filed as functional. In general terms: In TR-FRET formats the signal depends on donor and acceptor labels being close together.
Test [6] deals with Serine/threonine-protein kinase N2 (Homo sapiens, UniProt Q16513). It is filed as functional.
Test [7] concerns the target Mitogen-activated protein kinase kinase kinase kinase 4 (Homo sapiens, UniProt O95819). The test is classed as functional.
The target of test [8] is Vascular endothelial growth factor receptor 2 (Homo sapiens, UniProt P35968). It is filed as functional.
In test [9] the target is Serine/threonine-protein kinase TAO1 (Homo sapiens, UniProt Q7L7X3). The test is classed as functional.
For test [10], the target named is Tyrosine-protein kinase Lck (Homo sapiens, UniProt P06239). The test is classed as functional.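 Note: lck was assayed as one member of a kinase panel.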
The next test has as its target Misshapen-like kinase 1 (Homo sapiens, UniProt Q8N4C8). The test is classed as functional.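 Note: kinome panel screen with MINK as the panel member.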
The target of test [11] is Tyrosine-protein kinase ABL1 (Homo sapiens, UniProt P00519). It is filed as functional.
For the next test, the target named is Focal adhesion kinase 1 (Homo sapiens, UniProt Q05397). It is filed as functional.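 Note: measured as one member of a kinome panel.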
Test [12] deals with Tyrosine-protein kinase BTK (Homo sapiens, UniProt Q06187). It is filed as functional.
Test [13] has as its target Tyrosine-protein kinase Fyn (Homo sapiens, UniProt P06241). The test is classed as functional.
Test [14] deals with Cell division cycle 7-related protein kinase (Homo sapiens, UniProt O00311). The test is classed as functional.
Test [15] addresses Interleukin-1 receptor-associated kinase 4 (Homo sapiens, UniProt Q9NWZ3). The test is classed as functional.
Test [16] deals with MAP kinase-interacting serine/threonine-protein kinase 2 (Homo sapiens, UniProt Q9HBH9). It is filed as functional.
The target in test [17] is Serine/threonine-protein kinase pim-1 (Homo sapiens, UniProt P11309). The test is classed as functional.
The target in test [18] is Glycogen synthase kinase-3 beta (Homo sapiens, UniProt P49841). It is filed as functional.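 Note: value comes from a broad kinome profiling panel, with GSK3B as the panel member.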
Test [19] deals with Homeodomain-interacting protein kinase 2 (Homo sapiens, UniProt Q9H2X6). The test is classed as functional.
Test [20] addresses Dual specificity protein kinase CLK4 (Homo sapiens, UniProt Q9HAZ1). It is filed as functional.
The target of test [21] is cAMP-dependent protein kinase catalytic subunit alpha (Homo sapiens, UniProt P17612). The test is classed as functional.
The target of test [22] is Protein disulfide-isomerase (Homo sapiens, UniProt P07237). Put plainly: PDI inhibitors, insulin aggregation turbidity, dose response, biochemical, absorbance, cherry-picked samples (AID 602350). The test is classed as functional.
The target of test [23] is Tyrosine-protein kinase HCK (Homo sapiens, UniProt P08631). Briefly: Navigating the Kinome. Panel member name: HCK. The test is classed as functional.
Test [24] deals with Serine/threonine-protein kinase D3 (Homo sapiens, UniProt O94806). The test is classed as functional.
For test [25], the target named is Leukocyte tyrosine kinase receptor (Homo sapiens, UniProt P29376). Put plainly: Navigating the Kinome. Panel member name: LTK. It is filed as functional.
Another test deals with LIM domain kinase 1 (Homo sapiens, UniProt P53667). Briefly: Navigating the Kinome. Panel member name: LIMK1. The test is classed as functional.
For test [26], the target named is Rho-associated protein kinase 1 (Homo sapiens, UniProt Q13464). The test is classed as functional.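 Note: measured within a broad kinome-wide panel profiling many kinases.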
Test [27] deals with Proto-oncogene tyrosine-protein kinase ROS (Homo sapiens, UniProt P08922). It is filed as functional.
The next test has as its target Aurora kinase B (Homo sapiens, UniProt Q96GD4). It is filed as functional.
Test [28] has as its target Serine/threonine-protein kinase 3 (Homo sapiens, UniProt Q13188). The test is classed as functional.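 Note: measured as one member of a kinome-wide kinase panel.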
The target in test [29] is Platelet-derived growth factor receptor alpha (Homo sapiens, UniProt P16234). Put plainly: Navigating the Kinome. Panel member name: PDGFRA. The test is classed as functional.
For test [30], the target named is ALK tyrosine kinase receptor (Homo sapiens, UniProt Q9UM73). It is filed as functional.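 Note: ALK tested as one member of a kinase panel screen.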
For test [31], the target named is Cyclin-dependent kinase 7 (Homo sapiens, UniProt P50613). The test is classed as functional.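 Note: value comes from a kinome-wide kinase profiling panel in which CDK7 is one member.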
The target in test [32] is Maternal embryonic leucine zipper kinase (Homo sapiens, UniProt Q14680). The test is classed as functional.
Test [33] concerns the target Platelet-derived growth factor receptor beta (Homo sapiens, UniProt P09619). The test is classed as functional.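 Note: value comes from a kinome panel, with PDGFRB tested as one panel member.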
For test [34], the target named is Glycogen synthase kinase-3 alpha (Homo sapiens, UniProt P49840). The test is classed as functional.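 Note: GSK3A result taken from a broad kinome-wide kinase panel.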
Test [35] concerns the target Cyclin-dependent kinase 9 (Homo sapiens, UniProt P50750). The test is classed as functional.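 Note: value from the CDK9 entry of a kinome-spanning kinase panel.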
In test [36] the target is Death-associated protein kinase 3 (Homo sapiens, UniProt O43293). It is filed as functional.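 Note: measured as one member of a kinome-wide profiling panel.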
The target in test [37] is T1, cAMP-dependent protein kinase catalytic subunit PRKX (Homo sapiens, UniProt P51817).
T1 sequence (P51817 whole entry): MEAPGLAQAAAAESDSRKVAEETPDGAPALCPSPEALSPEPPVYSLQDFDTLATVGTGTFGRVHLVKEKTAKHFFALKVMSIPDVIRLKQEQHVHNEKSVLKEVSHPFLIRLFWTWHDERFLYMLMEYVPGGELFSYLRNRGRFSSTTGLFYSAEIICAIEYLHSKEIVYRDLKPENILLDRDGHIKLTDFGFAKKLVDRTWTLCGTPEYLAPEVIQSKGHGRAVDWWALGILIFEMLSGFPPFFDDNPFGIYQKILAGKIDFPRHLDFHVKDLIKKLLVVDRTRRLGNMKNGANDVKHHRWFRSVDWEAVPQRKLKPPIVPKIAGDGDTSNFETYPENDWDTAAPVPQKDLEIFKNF
The test is classed as functional.

Test [38] addresses Cyclin-dependent kinase 5 (Homo sapiens, UniProt Q00535). The test is classed as functional.
Test [39] deals with Macrophage-stimulating protein receptor (Homo sapiens, UniProt Q04912). Briefly: Navigating the Kinome. Panel member name: MST1R. The test is classed as functional.
Test [40] has as its target Mitogen-activated protein kinase kinase kinase kinase 2 (Homo sapiens, UniProt Q12851). The test is classed as functional.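 Note: measured as one member of a kinome-wide kinase panel, with MAP4K2 as the panel entry.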
Test [41] has as its target 5'-AMP-activated protein kinase catalytic subunit alpha-1 (Homo sapiens, UniProt Q13131). The test is classed as functional.
The target in test [42] is Vascular endothelial growth factor receptor 1 (Homo sapiens, UniProt P17948). The test is classed as functional.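 Note: measured within a kinome-wide profiling panel, FLT1 as the panel member.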
Test [43] concerns the target Calcium/calmodulin-dependent protein kinase kinase 2 (Homo sapiens, UniProt Q96RR4). Briefly: Navigating the Kinome. Panel member name: CAMKK2. The test is classed as functional.

Vascular endothelial growth factor receptor 2, sequence (P35968 whole entry): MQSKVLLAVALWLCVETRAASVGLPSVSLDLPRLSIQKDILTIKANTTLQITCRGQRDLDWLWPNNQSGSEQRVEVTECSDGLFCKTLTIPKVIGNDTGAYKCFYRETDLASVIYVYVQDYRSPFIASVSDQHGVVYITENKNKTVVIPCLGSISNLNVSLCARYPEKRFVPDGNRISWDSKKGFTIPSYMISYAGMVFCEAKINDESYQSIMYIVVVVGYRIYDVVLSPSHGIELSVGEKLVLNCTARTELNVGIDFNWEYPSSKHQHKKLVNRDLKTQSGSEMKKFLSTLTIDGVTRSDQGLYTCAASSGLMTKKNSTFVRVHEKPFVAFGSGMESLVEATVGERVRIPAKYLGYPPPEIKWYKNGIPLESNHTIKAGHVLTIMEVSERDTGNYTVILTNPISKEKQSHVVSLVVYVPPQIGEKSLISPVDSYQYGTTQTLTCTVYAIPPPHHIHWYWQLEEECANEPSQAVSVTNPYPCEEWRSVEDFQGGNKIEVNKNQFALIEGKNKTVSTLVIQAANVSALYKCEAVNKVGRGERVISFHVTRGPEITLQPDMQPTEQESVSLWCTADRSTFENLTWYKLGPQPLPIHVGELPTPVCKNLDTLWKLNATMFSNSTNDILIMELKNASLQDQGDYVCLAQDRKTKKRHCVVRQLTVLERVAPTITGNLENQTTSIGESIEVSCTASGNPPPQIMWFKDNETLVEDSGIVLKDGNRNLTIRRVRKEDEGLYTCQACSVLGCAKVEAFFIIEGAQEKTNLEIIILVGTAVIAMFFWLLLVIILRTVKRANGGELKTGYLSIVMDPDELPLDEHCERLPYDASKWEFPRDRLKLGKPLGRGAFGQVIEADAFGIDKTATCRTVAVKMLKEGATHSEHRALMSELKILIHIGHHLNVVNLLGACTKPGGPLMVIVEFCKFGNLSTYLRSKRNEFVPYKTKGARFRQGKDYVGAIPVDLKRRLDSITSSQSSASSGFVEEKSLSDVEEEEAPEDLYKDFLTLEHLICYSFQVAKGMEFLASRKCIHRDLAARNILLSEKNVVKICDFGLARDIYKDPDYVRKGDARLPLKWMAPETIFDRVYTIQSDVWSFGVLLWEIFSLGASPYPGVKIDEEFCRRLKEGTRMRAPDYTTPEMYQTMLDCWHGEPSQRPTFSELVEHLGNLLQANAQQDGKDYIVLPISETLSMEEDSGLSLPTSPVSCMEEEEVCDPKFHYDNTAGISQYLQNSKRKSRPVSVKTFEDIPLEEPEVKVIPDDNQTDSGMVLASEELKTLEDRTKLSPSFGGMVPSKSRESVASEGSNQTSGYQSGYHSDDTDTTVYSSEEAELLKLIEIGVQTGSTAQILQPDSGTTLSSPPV
Proto-oncogene tyrosine-protein kinase ROS, sequence (P08922 whole entry): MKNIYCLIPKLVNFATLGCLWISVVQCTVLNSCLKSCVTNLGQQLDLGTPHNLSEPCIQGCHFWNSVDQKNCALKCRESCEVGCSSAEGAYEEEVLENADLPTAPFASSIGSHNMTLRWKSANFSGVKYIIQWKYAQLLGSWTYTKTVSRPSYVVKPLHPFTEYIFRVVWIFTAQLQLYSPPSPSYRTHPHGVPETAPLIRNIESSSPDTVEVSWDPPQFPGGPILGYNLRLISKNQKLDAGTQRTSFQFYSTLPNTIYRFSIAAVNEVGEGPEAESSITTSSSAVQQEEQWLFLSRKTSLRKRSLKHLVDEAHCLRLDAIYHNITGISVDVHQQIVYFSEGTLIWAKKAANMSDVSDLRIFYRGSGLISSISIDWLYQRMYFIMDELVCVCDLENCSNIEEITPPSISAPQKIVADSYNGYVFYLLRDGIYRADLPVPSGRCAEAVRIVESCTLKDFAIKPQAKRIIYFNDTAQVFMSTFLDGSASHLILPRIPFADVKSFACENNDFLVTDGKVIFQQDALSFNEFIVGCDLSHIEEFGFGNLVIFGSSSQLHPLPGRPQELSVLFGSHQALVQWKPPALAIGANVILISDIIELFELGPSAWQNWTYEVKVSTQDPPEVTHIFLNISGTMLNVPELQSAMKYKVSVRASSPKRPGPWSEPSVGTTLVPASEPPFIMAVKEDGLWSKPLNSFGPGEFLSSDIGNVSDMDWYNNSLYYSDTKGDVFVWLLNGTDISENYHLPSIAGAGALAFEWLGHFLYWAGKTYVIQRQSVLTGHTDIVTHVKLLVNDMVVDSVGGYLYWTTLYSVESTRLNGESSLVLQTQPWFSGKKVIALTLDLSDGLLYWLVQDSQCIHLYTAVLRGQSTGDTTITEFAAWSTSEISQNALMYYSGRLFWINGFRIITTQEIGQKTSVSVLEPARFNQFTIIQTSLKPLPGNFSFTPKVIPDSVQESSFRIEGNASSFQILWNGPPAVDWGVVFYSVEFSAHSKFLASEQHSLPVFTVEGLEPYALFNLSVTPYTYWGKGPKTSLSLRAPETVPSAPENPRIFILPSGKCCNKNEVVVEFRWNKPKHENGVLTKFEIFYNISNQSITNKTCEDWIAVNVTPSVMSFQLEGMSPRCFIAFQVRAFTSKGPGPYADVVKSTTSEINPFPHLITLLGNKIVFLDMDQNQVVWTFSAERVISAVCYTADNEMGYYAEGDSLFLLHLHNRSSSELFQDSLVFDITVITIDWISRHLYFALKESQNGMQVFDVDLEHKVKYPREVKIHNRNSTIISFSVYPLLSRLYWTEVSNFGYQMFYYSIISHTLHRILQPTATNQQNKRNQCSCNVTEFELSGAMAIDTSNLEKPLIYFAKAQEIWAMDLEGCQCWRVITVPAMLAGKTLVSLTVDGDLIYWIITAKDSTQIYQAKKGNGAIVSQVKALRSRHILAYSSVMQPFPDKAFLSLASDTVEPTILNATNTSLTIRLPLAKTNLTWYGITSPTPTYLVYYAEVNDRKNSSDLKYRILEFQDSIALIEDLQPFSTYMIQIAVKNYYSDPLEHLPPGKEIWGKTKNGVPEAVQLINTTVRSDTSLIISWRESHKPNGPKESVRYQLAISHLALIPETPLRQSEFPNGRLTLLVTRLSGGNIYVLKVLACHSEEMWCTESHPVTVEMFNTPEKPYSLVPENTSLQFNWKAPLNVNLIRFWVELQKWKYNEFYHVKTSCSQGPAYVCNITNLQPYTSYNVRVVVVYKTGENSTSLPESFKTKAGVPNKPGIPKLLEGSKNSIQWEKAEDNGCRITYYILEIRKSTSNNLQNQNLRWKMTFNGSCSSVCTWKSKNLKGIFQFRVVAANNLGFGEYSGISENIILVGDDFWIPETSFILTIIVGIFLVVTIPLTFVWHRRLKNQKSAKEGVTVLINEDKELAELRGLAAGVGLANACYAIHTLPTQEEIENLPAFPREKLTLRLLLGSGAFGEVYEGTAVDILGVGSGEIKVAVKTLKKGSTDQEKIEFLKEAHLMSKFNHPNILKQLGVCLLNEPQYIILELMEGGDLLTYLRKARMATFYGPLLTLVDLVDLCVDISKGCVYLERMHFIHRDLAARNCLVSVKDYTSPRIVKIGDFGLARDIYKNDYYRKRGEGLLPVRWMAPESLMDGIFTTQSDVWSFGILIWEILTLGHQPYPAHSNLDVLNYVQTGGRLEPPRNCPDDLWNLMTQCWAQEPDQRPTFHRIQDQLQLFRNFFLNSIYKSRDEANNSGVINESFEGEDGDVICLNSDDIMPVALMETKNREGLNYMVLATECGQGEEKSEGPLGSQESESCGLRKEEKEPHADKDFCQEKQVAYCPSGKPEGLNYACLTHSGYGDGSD
Glycogen synthase kinase-3 beta, sequence (P49841 whole entry): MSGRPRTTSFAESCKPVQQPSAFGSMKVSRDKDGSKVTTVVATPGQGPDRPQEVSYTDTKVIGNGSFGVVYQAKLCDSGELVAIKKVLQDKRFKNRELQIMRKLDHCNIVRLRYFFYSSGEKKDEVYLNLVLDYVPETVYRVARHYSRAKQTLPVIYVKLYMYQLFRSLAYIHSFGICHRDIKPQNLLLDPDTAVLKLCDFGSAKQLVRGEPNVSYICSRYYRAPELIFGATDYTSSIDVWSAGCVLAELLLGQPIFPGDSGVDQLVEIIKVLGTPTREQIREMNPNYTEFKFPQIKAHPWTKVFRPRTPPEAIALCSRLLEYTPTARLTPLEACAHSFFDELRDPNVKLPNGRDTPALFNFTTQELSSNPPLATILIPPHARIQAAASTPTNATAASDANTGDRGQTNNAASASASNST
Death-associated protein kinase 3, sequence (O43293 whole entry): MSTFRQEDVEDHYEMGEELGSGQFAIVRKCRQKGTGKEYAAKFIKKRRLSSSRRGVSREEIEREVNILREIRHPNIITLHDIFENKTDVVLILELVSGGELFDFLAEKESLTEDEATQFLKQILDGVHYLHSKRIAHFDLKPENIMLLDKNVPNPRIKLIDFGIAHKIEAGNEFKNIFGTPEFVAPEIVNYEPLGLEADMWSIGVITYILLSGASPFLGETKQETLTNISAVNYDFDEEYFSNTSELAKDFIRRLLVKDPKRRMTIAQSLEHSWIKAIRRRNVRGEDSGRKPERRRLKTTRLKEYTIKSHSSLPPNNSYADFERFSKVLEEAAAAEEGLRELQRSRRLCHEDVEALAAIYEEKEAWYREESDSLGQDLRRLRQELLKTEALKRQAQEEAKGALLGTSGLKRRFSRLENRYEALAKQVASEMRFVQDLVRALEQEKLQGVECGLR
Aurora kinase B, sequence (Q96GD4 whole entry): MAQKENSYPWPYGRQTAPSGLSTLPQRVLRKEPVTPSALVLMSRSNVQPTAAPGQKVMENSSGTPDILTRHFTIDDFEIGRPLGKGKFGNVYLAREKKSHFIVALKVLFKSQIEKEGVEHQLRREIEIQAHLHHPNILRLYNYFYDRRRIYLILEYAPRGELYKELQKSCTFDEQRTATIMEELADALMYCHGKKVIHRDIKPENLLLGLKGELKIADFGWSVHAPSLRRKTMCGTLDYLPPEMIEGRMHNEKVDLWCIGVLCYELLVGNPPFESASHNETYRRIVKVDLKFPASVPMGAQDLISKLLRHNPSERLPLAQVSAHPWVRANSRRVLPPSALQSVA

With `CCOC(=O)CC(c1ccc(N)cc1)n1c(C)ccc1C` (stereo not given), the IC50 in [1] and in test [2] was > 99 µM (inactive) in each case.

With `CC1CCN(C(=O)CSc2nc(O)c3ccccc3n2)CC1`, the cytotoxic concentration (CC50) in [3] and in test [4] was > 100 µM (active) throughout.

`CS(=O)(=O)Nc1cccc(NC(=O)c2cccc3c(-c4cccc(C(N)=O)c4)coc23)c1`: the IC50 in [5] is > 64.6 µM (inactive); in the test with H9c2, > 79 µM (inactive); at Melanocortin receptor 4 it was > 64.6 µM (inactive).

Regarding `CN(C)c1c(NC(=O)c2c(F)cccc2F)cccc1-c1nc2sccn2c1-c1ccnc(Nc2cccc(N3CCOCC3)c2)n1`, the Ki in [6] was > 5.01 µM (inactive); in test [7], 1.26 µM (active); in [8], 2 µM (active); in test [9], > 6.31 µM (inactive); in [10], 0.501 µM (active); at Misshapen-like kinase 1 it was > 5.01 µM (inactive). Further, the Ki was 0.501 µM (active) in test [11], > 6.31 µM (inactive) at Focal adhesion kinase 1, > 6.31 µM (inactive) in [12] and > 6.31 µM (inactive) in [13].

Take `Cc1cccc(CNc2cc(-c3c[nH]c4ncccc34)ncn2)c1`: the Ki in test [14] was 0.00251 µM (active); in test [15], 0.501 µM (active); in [16], 0.158 µM (active); in [17], 0.126 µM (active); in test [18], 0.00794 µM (active); in test [19] it was 0.158 µM (active). The values for the Ki in [20] and in [21] were 0.00631 µM (active) and 0.158 µM (active), respectively.

`CCN1C[C@]2(COC(=O)c3ccccc3N)CC[C@H](OC)C34[C@@H]5C[C@H]6[C@H](OC)[C@@H]5[C@](O)(C[C@@H]6OC)[C@@](O)([C@H]13)[C@@H](OC)[C@@H]42`: the half-maximal activity concentration (AC50) in [22] was 19.5 µM (active).

In the case of `CCN1CCN(Cc2ccc(NC(=O)Nc3ccc(Oc4cc(NC)ncn4)cc3)cc2C(F)(F)F)CC1` [AST-487], the Ki in test [23] is 0.1 µM (active); in [24] it was > 3.98 µM (inactive); in test [25], 0.631 µM (active); in test [8] it was 0.00251 µM (active); on LIM domain kinase 1, > 3.16 µM (inactive); in [26] it was > 3.98 µM (inactive). Moreover, the Ki in test [27] is 2 µM (active); at Aurora kinase B it was > 3.98 µM (inactive); in test [28], > 2.51 µM (inactive); in [29], 0.0794 µM (active); in test [30] it was > 6.31 µM (inactive); in [31] it was > 5.01 µM (inactive). Moreover, the inhibition constant (Ki) in test [32] is 0.126 µM (active); in test [33] it was 0.00794 µM (active); in [34], > 3.98 µM (inactive); in [35], > 1.58 µM (inactive); in test [36], 3.98 µM (active); in test [37] it was > 3.16 µM (inactive). Besides, the Ki in [38] is > 3.16 µM (inactive); in test [39] it was > 3.98 µM (inactive); in test [40] it was 0.0794 µM (active); in test [41], > 3.16 µM (inactive); in [42] it was 0.0316 µM (active); in test [43], 0.794 µM (active).
